Experimental findings from patent US8796328B2, “TRPV1 antagonists” (AbbVie Inc., priority 2012, dated 2014) are described below.

The structures appear in SMILES notation. pIC50: −log10 of the molar value. Like-named read-outs stand apart in the source and are kept apart here.

In test [1] the target is T1, human TRPV1 receptor (hTRPV1) (Homo sapiens (Human), UniProt Q8NER1). Put plainly: Capsaicin activation assay (FLIPR intracellular Ca2+). It is filed as cell-based. An outline of the steps:
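Recombinant HEK293 cells stably expressing hTRPV1, Calcium-4 dye loaded 90–120 min at room temperature, were preincubated with compound (12-point, one-third-log) for 3 min before capsaicin challenge. Peak FLIPR fluorescence minus baseline was normalised to capsaicin control response; IC50 from four-parameter logistic fit.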

For test [2], the target named is T1, human TRPV1 receptor (hTRPV1). The experiment in a line: Acid activation assay (pH 5.0, FLIPR intracellular Ca2+). Type of test: cell-based. The conditions noted are these: 37.5 μM compound.

T1 sequence (Q8NER1 whole entry): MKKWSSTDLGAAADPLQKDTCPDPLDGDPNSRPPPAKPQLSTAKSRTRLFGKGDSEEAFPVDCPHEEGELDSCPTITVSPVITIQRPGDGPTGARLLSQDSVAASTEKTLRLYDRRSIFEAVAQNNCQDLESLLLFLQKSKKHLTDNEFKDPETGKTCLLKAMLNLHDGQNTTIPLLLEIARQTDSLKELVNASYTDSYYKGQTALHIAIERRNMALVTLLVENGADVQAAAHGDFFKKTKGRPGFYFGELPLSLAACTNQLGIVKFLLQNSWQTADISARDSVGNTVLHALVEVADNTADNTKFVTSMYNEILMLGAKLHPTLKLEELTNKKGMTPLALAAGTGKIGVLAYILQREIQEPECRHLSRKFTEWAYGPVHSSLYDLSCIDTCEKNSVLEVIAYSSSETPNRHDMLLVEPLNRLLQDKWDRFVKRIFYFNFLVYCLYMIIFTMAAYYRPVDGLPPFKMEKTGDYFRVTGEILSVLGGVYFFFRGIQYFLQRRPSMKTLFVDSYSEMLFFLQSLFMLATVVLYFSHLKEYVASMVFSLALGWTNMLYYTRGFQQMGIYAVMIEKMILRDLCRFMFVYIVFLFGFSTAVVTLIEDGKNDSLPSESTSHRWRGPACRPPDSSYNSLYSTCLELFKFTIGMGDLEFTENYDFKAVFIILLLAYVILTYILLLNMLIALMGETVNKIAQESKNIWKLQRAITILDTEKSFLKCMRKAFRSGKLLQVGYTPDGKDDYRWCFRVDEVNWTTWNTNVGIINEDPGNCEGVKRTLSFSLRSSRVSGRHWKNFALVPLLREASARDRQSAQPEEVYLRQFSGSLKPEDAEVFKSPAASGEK

`CS(=O)(=O)Nc1ccc(CNC(=O)N[C@@H]2CC(CF)(CF)Oc3cc(C(F)(F)F)ccc32)cc1F` [Example 10, N-{4-[({[(4R)-2,2-bis(fluoromethyl)-7-(trifluoromethyl)-3,4-dihydro-2H-chromen-4-yl]carbamoyl}amino)methyl]-2-fluorophenyl}methanesulfonamide]: the pIC50 (commonly the IC50 on a negative log10 scale, so that one unit is a factor of ten) in test [1] (Table 2, capsaicin-induced intracellular Ca2+ increase, read-out: human TRPV1 capsaicin IC50) was 7.27; in test [1] (inhibition of capsaicin-induced intracellular Ca2+ increase, compounds added 3 minutes prior to capsaicin, read-out: hTRPV1 cap. IC50), 7.27. In addition, the remaining activity at 37.5 µM in test [2] (percentage of the maximal pH 5.0-induced response remaining, read-out: hTRPV1 H+ (max % remain)) came out at 72%. The “human TRPV1 H+ (max % remain)” value in test [2] (Table 2, percentage of maximal pH 5.0-induced response) is given as 72%.
